Patent US20100086519A1, “Treatment of Hepatitis C Infection With Metalloporphyrins” (The Charlotte-Mecklenburg Hospital Authority d/b/a …, priority 2008, published 2010)
Where a SMILES comes first, the peptide text is derived from it. The star is where a group is joined. Cbz = O=C(OCc1ccccc1)*

Assays:
[1] = target: T1, HCV NS5A protein (Hepatitis C virus genotype 1b, UniProt Q9WMX2); test: NS5A protein levels by Western blot in 9-13 cells; assay type: cell-based; design: processed into structural (C, E1, E2) and nonstructural (NS2, NS3, NS4A, NS4B, NS5A and NS5B) proteins; expressed in transfected cells; host or cells: 9-13 cells (human hepatoma cells with a replicating HCV NS3-NS5B region); settings: 9-13 cells; for NS5A protein levels, proteasome inhibitor alone: absence of ZnMP, FIG. 5C; for effect on degradation of NS5A by ZnMP 5 μM: epoxomicin 5, 10 μM or MG132 10, 20 μM 30 min before ZnMP 5 μM; for effect on degradation of NS5A by ZnMP 5 μM / effect on degradation of NS5A by ZnMP 10 μM / NS5A protein levels: 4 hours; for effect on degradation of NS5A by ZnMP 10 μM: epoxomicin 5, 10 μM or MG132 10, 20 μM 30 min before ZnMP 10 μM; for NS5A protein levels: 10 μM, FIG. 2A
Excerpt: Bartenschlager (University of Heidelberg, Heidelberg, Germany).
Biochim Biophys Acta 2008; 1779:195-203.

[2] = target: T1, HCV NS5A protein; test: polyubiquitination of NS5A by immunoprecipitation and immunoblot in 9-13 cells; assay type: cell-based; design: processed into structural (C, E1, E2) and nonstructural (NS2, NS3, NS4A, NS4B, NS5A and NS5B) proteins; expressed in transfected cells; host or cells: 9-13 cells (human hepatoma cells with a replicating HCV NS3-NS5B region)
Method: Immunoprecipitation was carried out according to the Manufacturer's protocol. Briefly, cells were harvested in cold radioimmunoprecipitation assay (RIPA) buffer (50 mM Tris-HC1 [pH 7.4], 150 mM NaCl, 1 mM EDTA, 0.25% sodium deoxycholate, 1% IGEPAL CA-630, 1 mM PMSF, 1 mM NaF, 1 mM Na3VO4 and 1 μg/ml each of aprotinin, leupeptin, and pepstatin). The samples were pre-cleared with Protein A/G Agarose for 10 min at 4° C. and subsequently incubated while gently rotating at 4° C. overnight with primary antibody, followed by Protein A/G beads for 1 h at 4° C. Beads were spun down and washed twice with RIPA buffer. Protein samples were separated by electrophoresis on 4-15% SDS-PAGE gels, and transferred to PVDF membrane, conjugated ubiquitin was detected as described for Western blot analysis using anti-ubiquitin antibody.
This Example investigates whether ZnMP induces polyubquitination of NS5A to gain insight into the mechanism by which ZnMP mediates degradation of NS5A protein. 9-13 cells were treated without or with 10 μM ZnMP for 4 h. Total proteins were extracted for subsequent Western blot or immunoprecipitation analysis. Immunoprecipitation was carried out using anti-HCV NS5A antibody. Ubiquitin conjugation of NS5A [polyubiquitinated NS5A (Ub)n-NS5A]was examined with immunoprecipitation using an anti-HCV NS5A antibody and immunoblot using an anti-ubiquitin antibody. […] In FIG. 6B, ubiquitination of NS5A following ZnMP treatment, or vehicle (DMSO) only was compared. The positions of molecular mass markers (in kilodaltons) are indicated to the left of the gel. The bracket indicates polyubiquitinated NS5A. Asterisks indicate cross-reacting immunoglobulin heavy chain. […] These bands may represent polyubiquitinated NS5A.

[3] = system: HCV; test: anti-viral activity (summary statement); assay type: cell-based, hepatitis C virus
[4] = system: 9-13 cells; test: growth of cells exposed to proteasome inhibitor; assay type: cell-based, human; settings: 20 μM
[5] = target: T2, Bach1 (Mus musculus, UniProt P97302); settings: NIH 3T3 cells; cited from earlier work
T2 construct: host or cells: NIH 3T3 cells
T2 sequence (P97302 1-739): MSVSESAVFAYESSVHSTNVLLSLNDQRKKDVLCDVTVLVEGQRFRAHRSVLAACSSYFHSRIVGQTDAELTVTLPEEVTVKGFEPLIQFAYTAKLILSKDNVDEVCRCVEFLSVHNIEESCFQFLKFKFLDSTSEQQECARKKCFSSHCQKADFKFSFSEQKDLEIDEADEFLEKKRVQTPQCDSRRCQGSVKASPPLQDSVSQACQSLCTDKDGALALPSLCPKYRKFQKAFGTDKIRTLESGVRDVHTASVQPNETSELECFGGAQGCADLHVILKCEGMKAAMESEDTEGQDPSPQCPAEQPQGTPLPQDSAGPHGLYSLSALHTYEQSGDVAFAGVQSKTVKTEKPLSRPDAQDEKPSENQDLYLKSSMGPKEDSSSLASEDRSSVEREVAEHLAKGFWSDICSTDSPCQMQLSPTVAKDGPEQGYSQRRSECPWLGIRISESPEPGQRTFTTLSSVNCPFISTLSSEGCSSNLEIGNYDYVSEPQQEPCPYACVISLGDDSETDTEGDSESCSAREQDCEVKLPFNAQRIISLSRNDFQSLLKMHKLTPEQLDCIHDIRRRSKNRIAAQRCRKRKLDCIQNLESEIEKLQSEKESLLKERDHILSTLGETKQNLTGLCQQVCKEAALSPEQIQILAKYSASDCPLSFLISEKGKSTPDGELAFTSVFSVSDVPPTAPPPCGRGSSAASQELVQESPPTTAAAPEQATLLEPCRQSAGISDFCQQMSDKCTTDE

[6] = system: HO-1 gene; settings: NIH 3T3 cells; cited from earlier work

T1 sequence (Q9WMX2 1973-2419): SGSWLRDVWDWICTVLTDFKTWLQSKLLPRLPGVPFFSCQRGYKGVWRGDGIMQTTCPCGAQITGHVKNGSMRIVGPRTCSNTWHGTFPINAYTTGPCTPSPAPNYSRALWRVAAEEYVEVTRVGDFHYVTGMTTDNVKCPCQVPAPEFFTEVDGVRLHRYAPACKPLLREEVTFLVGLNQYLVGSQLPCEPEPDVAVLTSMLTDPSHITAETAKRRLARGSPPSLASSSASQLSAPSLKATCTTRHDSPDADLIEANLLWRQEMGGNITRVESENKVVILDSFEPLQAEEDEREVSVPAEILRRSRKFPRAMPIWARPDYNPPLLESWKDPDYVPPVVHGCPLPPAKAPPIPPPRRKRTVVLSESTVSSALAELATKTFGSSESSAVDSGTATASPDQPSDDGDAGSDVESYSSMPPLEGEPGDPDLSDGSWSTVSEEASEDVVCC

CC(C)C[C@@H](C=O)NC(=O)[C@H](CC(C)C)NC(=O)[C@H](CC(C)C)NC(=O)OCc1ccccc1 [MG132] (Cbz-Leu-Leu-Leu-aldehyde)
NS5A protein levels, proteasome inhibitor alone [1]: did not affect | effect on degradation of NS5A by ZnMP 5 μM [1]: completely abrogated | effect on degradation of NS5A by ZnMP 10 μM [1]: significant reversal

c1ccc(CN(CCN(Cc2ccccn2)Cc2ccccn2)Cc2ccccn2)nc1 [TEPN, N, N, N, N-tetrakis-(2-pyridylmethyl) ethylenediamine]
effect on ZnMP-mediated down-regulation of NS5A protein levels ([1]; chelator 30 min before ZnMP, then 4 h, FIG. 3): did not affect

[Cl-].[Cl-].[Zn+2] [ZnCl2, zinc chloride]
NS5A protein levels [1]: not affected

C=CC1=C(C)c2cc3[n-]c(cc4nc(cc5[n-]c(cc1n2)c(C)c5C=C)C(C)=C4CCC(=O)O)c(CCC(=O)O)c3C.[Zn+2] [ZnPP, Zinc protoporphyrin]
polyubquitination of NS5A (summary statement) [2]: induce polyubquitination | anti-viral activity (summary statement) [3]: display anti-viral activity

CC[C@H](C)[C@H](NC(=O)[C@H]([C@@H](C)CC)N(C)C(C)=O)C(=O)N[C@H](C(=O)N[C@@H](CC(C)C)C(=O)[C@@]1(C)CO1)[C@@H](C)O [epoxomicin]
NS5A protein levels, proteasome inhibitor alone [1]: did not affect | effect on degradation of NS5A by ZnMP 5 μM [1]: completely abrogated | effect on degradation of NS5A by ZnMP 10 μM [1]: significant reversal | toxicity to the cells (cell growth) [4]: toxic

Tin mesoporphyrin [SnMP]
NS5A protein levels, time course ([1]; 10 μM, 0, 2, 4, 6 h, FIG. 2B): no detectable effects | Bach1 protein levels [5]: down-regulate | HO-1 gene expression [6]: induce

mesoporphyrin
NS5A protein levels [1]: not affected
